PubChem BioAssay (NCI)
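96-well plates; 48 h exposure; 5 concentrations. Endpoints by linear interpolation between flanking doses. Not reached: highest tested concentration assigned. At the GI50, growth is halved. TGI: concentration producing complete growth inhibition.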

Key:
Assay in all cases: inhibition of tumour cell growth, NCI panel, 48 h
[1] = system: K-562 leukemia
[2] = system: HCC-2998 colon
[3] = system: KM12 colon
[4] = system: ACHN renal
[5] = system: HS 578T breast
[6] = system: NCI-H226 lung
[7] = system: SK-MEL-28 melanoma
[8] = system: SF-268 CNS
[9] = system: A549 NSCLC
[10] = system: SK-MEL-5 melanoma

| Structure (SMILES) | GI50 [1] [µM] | TGI [1] [µM] | GI50 [2] [µM] | TGI [2] [µM] | GI50 [3] [µM] | TGI [3] [µM] | GI50 [4] [µM] | TGI [4] [µM] | GI50 [5] [µM] | TGI [5] [µM] | GI50 [6] [µM] | TGI [6] [µM] | GI50 [7] [µM] | TGI [7] [µM] | GI50 [8] [µM] | TGI [8] [µM] | GI50 [9] [µM] | TGI [9] [µM] | GI50 [10] [µM] | TGI [10] [µM] |
| --- | --- | --- | --- | --- | --- | --- | --- | --- | --- | --- | --- | --- | --- | --- | --- | --- | --- | --- | --- | --- |
| CN(CC(=O)Nc1nc2ccccc2[nH]1)S(=O)(=O)c1ccc(Cl)cc1 | > 100 | > 100 | > 100 | > 100 | > 100 | > 100 | > 100 | > 100 | 65 | > 100 | > 100 | > 100 | > 100 | > 100 | 43.2 | > 100 | > 100 | > 100 | > 100 | > 100 |
| NS(=O)(=O)CC1CC[CH-]CC1.[Cl-].[Cl-].[Cl-].[Cl-].[Cl-].[Sb+5].c1ccncc1 | > 100 | > 100 | > 100 | > 100 | > 100 | > 100 | > 100 | > 100 | > 100 | > 100 | > 100 | > 100 | > 100 | > 100 | > 100 | > 100 | > 100 | > 100 | > 100 | > 100 |
| N#Cc1c(N)nc(N2CCOCC2)c(C#N)c1-c1ccccn1 | > 100 | > 100 | > 82 | > 100 | > 100 | > 100 | > 100 | > 100 | > 100 | > 100 |  | > 100 | > 100 | > 100 | > 100 | > 100 | > 100 | > 100 | > 100 | > 100 |
| Oc1ccc(C2c3ccccc3Oc3ccccc32)c2cccnc12 | 1.37 | > 100 | 1.89 | > 100 | 1.71 | > 100 | 0.845 | 9.58 | 3.45 | > 100 | 1.23 | 7.92 | 5.12 | > 100 | 1.29 | > 100 | 1.79 | > 100 | 1.62 | 8.66 |
| CN1CCN(c2ccc(NC(=O)c3cncnc3Nc3ccc(OCc4ccccn4)c(Cl)c3)cc2)CC1 | 0.778 | 2.28 | 4.22 | 9.15 | 4.16 | 9.63 | 3.77 | 7.87 | 4.17 | 13.5 | 5.42 | 13 | 0.749 | 1.64 | 5.03 | 11.2 | 2.22 | 7.71 | 1.77 | 6.01 |
| Cc1cc(-c2ccccn2)cc(C)c1/C=C/c1cncc(-c2nn[nH]n2)c1 | > 25 | > 25 | > 25 | > 25 | > 25 | > 25 | > 25 | > 25 | > 25 | > 25 | > 25 | > 25 | > 25 | > 25 | > 25 | > 25 | > 25 | > 25 | > 25 | > 25 |
| C=C1C(=O)O[C@H]2[C@H]1CC/C(COC(=O)C(C)c1ccc(CC(C)C)cc1)=C\CC[C@@]1(C)O[C@@H]21 (some centres undefined) | 0.359 | 1.96 | 1.95 | 3.74 | 1.79 | 3.69 | 1.29 | 2.56 | 2.04 | 5.97 | 1.64 | 3.52 | 1.63 | 3 | 1.72 | 3.5 | 1.8 | 3.65 | 1.6 | 2.96 |
| O=NNc1ccc(Sc2ccc(NN=O)cn2)nc1 |  | > 100 |  | > 100 |  | > 100 |  | > 100 |  | > 100 |  | > 100 |  | > 100 |  | > 100 |  | > 100 |  | > 100 |
